# In PMC7114863 (Journal of Hepatology, 2009):
# Columns and labels:
# [1] = system: HCV replicon in Huh 9-13 cells; experiment: HCV replicon clearance-rebound assay; assay type: cell-based; details: for clearance of replicon, drug alone: 20 × EC50, Huh 9-13; for drug resistant replicon in cells surviving rebound conditions: after treatment, addition of G418, data not shown; for clearance of Huh 9-13 cells from their replicon, drug alone: five times EC50, 3 passages
# [2] = system: VX-950^res and BILN-2061^res replicon; experiment: Anti-HCV assay, VX-950 and BILN-2061 double resistant replicon; details: for EC50: Hepatitis C virus, read-out: EC50, VX-950^res and BILN-2061^res; for fold resistance, VX-950^res and BILN-2061^res: versus wild-type replicon
# BILN-2061^res replicon = experiment: Anti-HCV assay, BILN-2061 resistant replicon; details: for EC50: Hepatitis C virus, read-out: EC50, BILN-2061^res; for fold resistance, BILN-2061^res: versus wild-type replicon
# [3] = system: 4′-Azidocytidine^res replicon; experiment: Anti-HCV assay, 4′-azidocytidine resistant replicon; details: for EC50: Hepatitis C virus, read-out: EC50, 4′-Azidocytidine^res; for fold resistance, 4′-Azidocytidine^res: versus wild-type replicon
# HuH6 replicons = experiment: Anti-HCV replicon assay in HuH6 cells; details: Hepatitis C virus, HuH-6, read-out: Anti-HCV activity EC50, HuH6
# Cytostatic assay = assay type: cell-based; details: human, HCV replicon-containing cells (Huh 5-2, HuH6 or Huh 9-13)
# [4] = system: J6/JFH chimeric HCV reporter virus (J6/JFH-Rluc2a-FLAG); experiment: Antiviral assay with HCVcc virus in Huh-Lunet cells; assay type: cell-based, HCV genotype 2a; details: for EC50: Hepatitis C virus, 72 h, read-out: Anti-HCV activity EC50, J6/JFH
# 2′-C-MeCyt^res replicon = experiment: Anti-HCV assay, 2′-C-MeCyt resistant replicon; details: for EC50: Hepatitis C virus, read-out: EC50, 2′-C-MeCyt^res; for fold resistance, 2′-C-MeCyt^res: versus wild-type replicon
# [5] = system: herpes simplex virus-1 (KOS strain, TK^− KOS ACV^r); experiment: Antiviral assay, herpes simplex virus-1; assay type: cell-based; details: data not shown
# [6] = system: bovine viral diarrhea virus (BVDV, flaviviridae); experiment: Antiviral assay with BVDV; assay type: cell-based
# [7] = system: vesicular stomatitis virus (rhabdoviridae); assay type: cell-based
# [8] = system: feline coronavirus (coronaviridae); experiment: Antiviral assay, feline coronavirus; assay type: cell-based; details: data not shown
# [9] = system: influenza B virus (orthomyxoviridae); experiment: Antiviral assay, influenza B virus; assay type: cell-based; details: data not shown
# [10] = system: vaccinia virus (poxviridae); experiment: Antiviral assay, vaccinia virus; assay type: cell-based; details: data not shown
# [11] = NADPH-dependent metabolic stability in dog hepatic microsomes; assay type: in vitro ADME
# [12] = Stability in basic and acidic solutions; assay type: physicochemical
# [13] = NADPH-dependent metabolic stability in rat hepatic microsomes; assay type: in vitro ADME
# [14] = system: coxsackie virus B4 (picornaviridae); experiment: Antiviral assay, coxsackie virus; assay type: cell-based; details: data not shown
# [15] = system: herpes simplex virus-2 (G strain, herpesviridae); experiment: Antiviral assay, herpes simplex virus-2; assay type: cell-based; details: data not shown
# [16] = system: respiratory syncytial virus (paramyxoviridae); experiment: Antiviral assay, respiratory syncytial virus; assay type: cell-based; details: data not shown
# [17] = system: HCV subgenomic 1b replicon; experiment: Anti-HCV subgenomic replicon assay; assay type: cell-based
# [18] = system: HIV-2 (ROD, retroviridae); experiment: Antiviral assay, HIV-2; assay type: cell-based; details: data not shown
# [19] = system: Punta Toro virus (bunyaviridae); experiment: Antiviral assay, Punta Toro virus; assay type: cell-based; details: data not shown
# reovirus-1 (reoviridae) = experiment: Antiviral assay, reovirus; assay type: cell-based; details: data not shown
# [20] = system: para-influenza-3 virus (paramyxoviridae); experiment: Antiviral assay, para-influenza virus; assay type: cell-based; details: data not shown
# HIV-1 (IIIB) = experiment: Antiviral assay, HIV-1; assay type: cell-based; details: data not shown
# [21] = system: influenza A virus (H1N1 and H3N2); experiment: Antiviral assay, influenza A virus; assay type: cell-based; details: data not shown
# [22] = system: sindbis virus (alphaviridae); experiment: Antiviral assay, sindbis virus; assay type: cell-based; details: data not shown
# GSK-4^res replicon = experiment: Anti-HCV assay, GSK-4 resistant replicon; details: for EC50: Hepatitis C virus, read-out: EC50, GSK-4^res; for fold resistance, GSK-4^res: versus wild-type replicon
# [23] = system: HuH6 replicon-containing cells; experiment: Drug combinations in HuH6 cells; assay type: cell-based, HCV; details: checkerboard
# YFV-17D (flaviviridae) = assay type: cell-based, yellow fever virus
# [24] = NADPH-dependent metabolic stability in human hepatic microsomes; assay type: in vitro ADME
# HCV = details: cited from earlier work
# [25] = 300 nM, Huh 9-13, data not shown
compound,measurement,setting,value
"C[C@@]1(O)[C@H](O)[C@@H](CO)O[C@H]1n1ccc(N)nc1=O [2′-C-MeCyt, 2′-C-Methylcytidine]","clearance of replicon, drug alone",[1],failed to achieve clearance
same,drug resistant replicon in cells surviving rebound conditions,[1],did not contain drug resistant replicon
same,EC50,[2],1 ± 0.7 µM
same,"fold resistance, VX-950^res and BILN-2061^res",[2],(2.3)
same,EC50,BILN-2061^res replicon,0.91 ± 1.1 µM
same,"fold resistance, BILN-2061^res",BILN-2061^res replicon,(2.1)
same,EC50,[3],3.4 ± 1.1 µM
same,"fold resistance, 4′-Azidocytidine^res",[3],(7.9)
same,EC50,HuH6 replicons,1.02 ± 0.44 µM
same,CC50,Cytostatic assay,≥ 26 µM
same,EC50,[4],0.1 ± 0.02 µM
same,EC50,2′-C-MeCyt^res replicon,≥ 30 µM
same,"fold resistance, 2′-C-MeCyt^res",2′-C-MeCyt^res replicon,⩾81
"[N-]=[N+]=N[C@]1(CO)O[C@@H](n2ccc(N)nc2=O)[C@H](O)[C@@H]1O [4′-Azidocytidine, 4′-azidocytidine]",EC50,[3],≥ 16 µM
same,"fold resistance, 4′-Azidocytidine^res",[3],(⩾5.5)
same,EC50,HuH6 replicons,7.4 ± 3.7 µM
same,CC50,Cytostatic assay,> 33 µM
same,EC50,2′-C-MeCyt^res replicon,1.2 ± 0.43 µM
same,"fold resistance, 2′-C-MeCyt^res",2′-C-MeCyt^res replicon,(0.41)
COc1ccc2c(O[C@@H]3C[C@H]4C(=O)N[C@]5(C(=O)O)C[C@H]5/C=C\CCCCC[C@H](NC(=O)OC5CCCC5)C(=O)N4C3)cc(-c3csc(NC(C)C)n3)nc2c1 [BILN-2061],EC50,[2],0.8 ± 0.08 µM
same,"fold resistance, VX-950^res and BILN-2061^res",[2],(80)
same,EC50,BILN-2061^res replicon,1.3 ± 0.47 µM
same,"fold resistance, BILN-2061^res",BILN-2061^res replicon,(130)
same,EC50,[3],0.014 ± 0.008 µM
same,"fold resistance, 4′-Azidocytidine^res",[3],(0.93)
same,EC50,HuH6 replicons,0.004 ± 0.002 µM
same,CC50,Cytostatic assay,≥ 22 µM
same,EC50,2′-C-MeCyt^res replicon,0.04 ± 0.03 µM
same,"fold resistance, 2′-C-MeCyt^res",2′-C-MeCyt^res replicon,(4.0)
"Fc1cccc(-c2nc3ccn(Cc4cc(-c5ccc(Cl)cc5)no4)cc-3n2)c1F [GS-327073, 5-[[3-(4-chlorophenyl)-5-isoxazolyl]methyl]-2-(2,3-difluorophenyl)-5H-imidazo[4,5-c]pyridine]",activity against herpes simplex virus 1,[5],inactive
same,cross-resistance with BPIP in anti-BVDV assay,[6],cross-resistant
same,fold less potent against BVDV than compound 1,[6]; compared to compound 1,about 10 fold
same,activity against vesicular stomatitis virus,[7],inactive
same,activity against feline coronavirus,[8],inactive
same,activity against influenza virus B,[9],inactive
same,activity against vaccinia virus,[10],inactive
same,microsomal half-time,"[11]; dog hepatic microsomes, NADPH-dependent",88 min
same,predicted hepatic clearance,[11]; dog microsomes,0.36 L/h/kg
same,stability in acidic solution,[12]; pH 2.2,remained stable
same,stability in basic solution,[12]; pH 7.3,remained stable
same,microsomal half-time,"[13]; rat hepatic microsomes, NADPH-dependent",96 min
same,predicted hepatic clearance,[13]; rat microsomes,0.63 L/h/kg
same,activity against coxsackie virus,[14],inactive
same,"clearance of replicon, drug alone",[1],failed to achieve clearance
same,"clearance of replicon, combination GS-327073 (5 × EC50) and VX-950 (5 × EC50)",[1]; Huh 9-13,clearance of Huh 9-13 cells from their replicon following one passage
same,"passages until clearance of replicon RNA, GS-327073 (20 × EC50) with 2′-C-MeCyt (20 × EC50)",[1]; Huh 9-13,2 passages
same,drug resistant replicon in cells surviving rebound conditions,[1],did not contain drug resistant replicon
same,"clearance of Huh 9-13 cells from their replicon, drug alone",[1],did not achieve complete clearance
same,activity against BILN-2061/VX-950 double resistant replicons,[2],retained wild-type activity
same,fate of cells containing VX-950/BILN-2061^res replicon under G418 pressure,[2]; [25],died following only one passage
same,"fold resistance, VX-950^res and BILN-2061^res",[2],(2.0)
same,activity against herpes simplex virus 2,[15],inactive
same,activity against respiratory syncitial virus,[16],inactive
same,activity against BILN-2061 resistant replicons,BILN-2061^res replicon,retained wild-type activity
same,EC50,BILN-2061^res replicon,0.009 ± 0.005 µM
same,"fold resistance, BILN-2061^res",BILN-2061^res replicon,(4.5)
same,selectivity indices,[17]; CC50/EC50,≥ 340
same,EC50,"[17]; Hepatitis C virus, GETYPE1, read-out: mean EC50 values, HCV (genotype 1) subgenomic replicon replication",0.002 to 0.05 µM
same,activity against human immunodeficiency virus 2,[18],inactive
same,activity against 4′-azidocytidine resistant replicons,[3],retained wild-type activity
same,EC50,[3],0.0072 ± 0.0008 µM
same,"fold resistance, 4′-Azidocytidine^res",[3],(3.6)
same,activity against Punta Toro virus,[19],inactive
same,activity against reovirus,reovirus-1 (reoviridae),inactive
same,EC50,HuH6 replicons,0.05 ± 0.02 µM
same,activity against para-influenza virus,[20],inactive
same,activity against human immunodeficiency virus 1,HIV-1 (IIIB),inactive
same,CC50,Cytostatic assay,≥ 17 µM
same,activity against influenza virus A,[21],inactive
same,activity against sindbis virus,[22],inactive
same,activity against GSK-4 resistant replicons,GSK-4^res replicon,retained wild-type activity
same,EC50,GSK-4^res replicon,0.011 ± 0.001 µM
same,"fold resistance, GSK-4^res",GSK-4^res replicon,(5.5)
same,combined antiviral activity with 2′-C-MeCyt,[23],additive antiviral activity
same,combined antiviral activity with IFNα 2b,[23],additive antiviral activity
same,combined antiviral activity with VX-950,[23],additive antiviral activity
same,combined antiviral activity with low concentrations of IFNα 2b,[23],slight synergistic effect
same,combined antiviral activity with ribavirin,[23],additive antiviral activity
same,activity against yellow fever virus (17D),YFV-17D (flaviviridae),inactive
same,EC50,[4],0.33 ± 0.14 µM
same,fold higher EC50 for HCV genotype 2a virus than for 1b replicon,[4]; versus 1b replicon,100 fold
same,activity against 2′-C-MeCyt resistant replicons,2′-C-MeCyt^res replicon,retained wild-type activity
same,fate of cells containing 2′-C-MeCyt^res replicon under G418 pressure,2′-C-MeCyt^res replicon; [25],died following only one passage
same,EC50,2′-C-MeCyt^res replicon,0.008 ± 0.006 µM
same,"fold resistance, 2′-C-MeCyt^res",2′-C-MeCyt^res replicon,(4.0)
same,microsomal half-time,"[24]; human hepatic microsomes, NADPH-dependent",236 min
same,predicted hepatic clearance,[24]; human microsomes,0.15 L/h/kg
CNC(=O)c1c(-c2ccc(F)cc2)oc2cc(N(CCO)S(C)(=O)=O)c(C3CC3)cc12 [HCV-796],EC50,HuH6 replicons,0.01 ± 0.003 µM
same,CC50,Cytostatic assay,> 33 µM
same,EC50,GSK-4^res replicon,0.06 ± 0.03 µM
same,"fold resistance, GSK-4^res",GSK-4^res replicon,(0.75)
same,EC50,[4],< 0.1 µM
NC(=O)c1ncn([C@@H]2O[C@H](CO)[C@@H](O)[C@H]2O)n1 [Ribavirin],EC50,HuH6 replicons,28 ± 16 µM
same,CC50,Cytostatic assay,> 33 µM
"CC(C)(C)NC(=O)N[C@H](C(=O)N1C[C@H]2[C@@H]([C@H]1C(=O)NC(CC1CCC1)C(=O)C(N)=O)C2(C)C)C(C)(C)C (stereo partly drawn) [SCH 503034, (1R,5S)-N-[3-amino-1-(cyclobutylmethyl)-2,3-dioxopropyl]-3-[2(S)-[[[(1,1-dimethylethyl)amino]carbonyl]amino]-3,3-dimethyl-1-oxobutyl]-6,6-dimethyl-3-azabicyclo[3.1.0]hexan-2(S)-carboxamide]",CC50,Cytostatic assay,≥ 7.4 µM
same,EC50,[4],0.34 µM
CC1CCC(C(=O)N(c2cc(-c3ccccc3)sc2C(=O)O)C2CCC(O)CC2)CC1 (centres unmarked) [VCH-759],tolerability in early clinical studies,HCV; HCV-infected patients,generally well-tolerated
same,decrease in HCV RNA,HCV; after 10 days of treatment in HCV-infected patients,2.5 log10
CCC[C@H](NC(=O)[C@@H]1[C@H]2CCC[C@H]2CN1C(=O)[C@@H](NC(=O)[C@@H](NC(=O)c1cnccn1)C1CCCCC1)C(C)(C)C)C(=O)C(=O)NC1CC1 [VX-950],"clearance of Huh 9-13 cells from their replicon, drug alone",[1],did not achieve complete clearance
same,EC50,[2],14 ± 1.4 µM
same,"fold resistance, VX-950^res and BILN-2061^res",[2],(24)
same,EC50,BILN-2061^res replicon,0.31 ± 0.05 µM
same,"fold resistance, BILN-2061^res",BILN-2061^res replicon,(0.53)
same,EC50,[3],0.69 ± 0.15 µM
same,"fold resistance, 4′-Azidocytidine^res",[3],(1.2)
same,EC50,HuH6 replicons,1.4 ± 0.49 µM
same,CC50,Cytostatic assay,≥ 24 µM
same,EC50,[4],0.29 ± 0.11 µM
same,EC50,2′-C-MeCyt^res replicon,1 ± 0.03 µM
same,"fold resistance, 2′-C-MeCyt^res",2′-C-MeCyt^res replicon,(1.7)
